Measurements as given in patent US20110294843A1, “ADMINISTRATION SCHEME OF POLAR OPIOID METABOLITES FOR POST-OPERATIVE PAIN MANAGEMENT” (PAION UK Limited, priority 2008, published 2011).
Where two headings read alike, the source gives them in different places.

What was measured:
[1] = Pharmacokinetics of M6G at single and multiple intravenous doses in healthy volunteers; type: in vivo, human; conditions: for AUC(0-inf) / Cmax / MRT inf / Vd / half-life / clearance: both sexes, human, plasma, iv; for AUC(0-inf): read-out: AUC0-∞; for Cmax: read-out: Cmax; for MRT inf: read-out: MRT0-∞; for Vd: read-out: Vss; for half-life: read-out: t½ (converted); for CLss / MRT24-∞: multiple dose, Dose 5-15 mg
Method: Healthy male and female subjects were divided into two groups (A and B) with 12 in each. Group A received three single intravenous infusions of M6G over 5 mins at levels of 15, 30 and 45 mg/70 kg in random order, having taken 50 mg of naloxone orally 24 hrs beforehand. There was a seven-day wash-out period between each dose. Blood samples were taken pre-dose and at the following time-points: 3, 5, 15, 30 mins and 1, 2, 3, 4, 6, 12 and 24 hrs after the start of the infusion. Group, B received five, 15 mg/70 kg, intravenous infusions of M6G, each over five minutes, at 6-hourly intervals, having taken a 50 mg oral dose of naloxone 24 hrs before the first infusion. Blood samples were taken before each of the 5 doses, and at 3, 5, 15, 30 mins and at 1, 2, 3 and 4 hrs after the initiation of the 1st and 5th infusions and at 6 hrs after the 5th dose. Vital signs (supine blood pressure, pulse, respiratory rate and oral temperature), respiration rate, pulse oximetry and adverse events were monitored during the study. Plasma levels of M6G were measured using HPLC/ms/ms.

[2] = prior experimental human and clinical studies; cited from earlier work
μ-opioid receptor = μ-opioid receptor (Homo sapiens, UniProt P35372); conditions: cited from earlier work
[3] = 15 mg/70 kg, single 5 min iv infusion 15 mg, Mean
[4] = 15 mg/70 kg, single 5 min iv infusion 15 mg, Median
[5] = 30 mg/70 kg, single 5 min iv infusion 30 mg, Geometric Mean
[6] = 30 mg/70 kg, single 5 min iv infusion 30 mg, Mean
[7] = 30 mg/70 kg, single 5 min iv infusion 30 mg, Median
[8] = 45 mg/70 kg, single 5 min iv infusion 45 mg, Geometric Mean
[9] = 45 mg/70 kg, single 5 min iv infusion 45 mg, Mean
[10] = 45 mg/70 kg, single 5 min iv infusion 45 mg, Median

Chain of μ-opioid receptor (P35372 whole entry, species assumed, the tested form may be a part): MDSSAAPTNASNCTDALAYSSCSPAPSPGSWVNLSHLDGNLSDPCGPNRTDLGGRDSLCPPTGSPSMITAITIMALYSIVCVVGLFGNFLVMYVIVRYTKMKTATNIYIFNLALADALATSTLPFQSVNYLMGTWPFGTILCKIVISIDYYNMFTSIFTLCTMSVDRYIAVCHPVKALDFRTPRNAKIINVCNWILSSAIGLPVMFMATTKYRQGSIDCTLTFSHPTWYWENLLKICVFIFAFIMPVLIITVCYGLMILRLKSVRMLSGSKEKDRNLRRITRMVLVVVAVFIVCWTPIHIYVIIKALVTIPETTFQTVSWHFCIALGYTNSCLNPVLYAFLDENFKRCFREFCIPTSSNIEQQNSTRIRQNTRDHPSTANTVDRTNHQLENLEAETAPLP

CN1CC[C@]23c4c5ccc(O)c4O[C@H]2[C@@H](OC2OC(C(=O)O)C(O)C(O)C2O)C=CC3[C@H]1C5 (stereo partly drawn) [M6G, (5α,6α)-7,8-Didehydro-4,5-epoxy-3-hydroxy-17-methylmorphinan-β-yl-β-D-glucopyranosiduronic acid]
AUC(0-inf) [1, 3]: 1930 ng·h/mL
Cmax [1, 3]: 1860 ng/mL
MRT inf [1, 3]: 1.65 h
Vd [1, 3]: 13 L
half-life [1, 3]: 1.48 h
clearance [1, 4]: 133 mL/min
AUC(0-inf) [1, 4]: 1880 ng·h/mL
Cmax [1, 4]: 1650 ng/mL
MRT inf [1, 4]: 1.69 h
Vd [1, 4]: 12.6 L
half-life [1, 4]: 1.56 h
clearance [1, 5]: 121 mL/min
AUC(0-inf) [1, 5]: 4140 ng·h/mL
Cmax [1, 5]: 3870 ng/mL
MRT inf [1, 5]: 1.76 h
Vd [1, 5]: 12.7 L
half-life [1, 5]: 1.7 h
clearance [1, 6]: 122 mL/min
AUC(0-inf) [1, 6]: 4190 ng·h/mL
Cmax [1, 6]: 3980 ng/mL
MRT inf [1, 6]: 1.77 h
Vd [1, 6]: 12.8 L
half-life [1, 6]: 1.72 h
clearance [1, 7]: 125 mL/min
AUC(0-inf) [1, 7]: 4000 ng·h/mL
Cmax [1, 7]: 4110 ng/mL
MRT inf [1, 7]: 1.81 h
Vd [1, 7]: 12.2 L
half-life [1, 7]: 1.81 h
clearance [1, 8]: 128 mL/min
AUC(0-inf) [1, 8]: 5850 ng·h/mL
Cmax [1, 8]: 5720 ng/mL
MRT inf [1, 8]: 1.66 h
Vd [1, 8]: 12.8 L
half-life [1, 8]: 1.62 h
clearance [1, 9]: 130 mL/min
AUC(0-inf) [1, 9]: 5910 ng·h/mL
Cmax [1, 9]: 5860 ng/mL
MRT inf [1, 9]: 1.68 h
Vd [1, 9]: 12.9 L
half-life [1, 9]: 1.64 h
clearance [1, 10]: 136 mL/min
AUC(0-inf) [1, 10]: 5500 ng·h/mL
Cmax [1, 10]: 5860 ng/mL
MRT inf [1, 10]: 1.78 h
Vd [1, 10]: 13.1 L
half-life [1, 10]: 1.69 h
accumulation, AUC0-∞ ([1]; five 15 mg iv infusions at 6 hour intervals): 2.9%
safety ([1]; healthy volunteers, single and multiple iv doses): No clinically significant safety issues
CLss ([1]; Geometric Mean): 7261 mL/h
MRT24-∞ ([1]; Geometric Mean): 1.63 h
CLss ([1]; Mean): 7303 mL/h
MRT24-∞ ([1]; Mean): 1.65 h
CLss ([1]; Median): 7173 mL/h
MRT24-∞ ([1]; Median): 1.64 h
potency ratio morphine and M6G [2]: 3 to 1
affinity for the μ-opioid receptor compared with morphine (μ-opioid receptor): comparable affinity
